Among the data in patent publication US10160729B2, “Hsp70 modulators and methods for making and using the same” (Memorial Sloan Kettering Cancer Center, priority 2014, dated 2018) are EC50 values, retold here.

Bounds are passed on as bounds.

This assay concerns MOLM-13 cells. Put plainly: Caspase cleavage assay (Caspase3, 7 activation). It counts as cell-based. As to conditions: Homo sapiens, 16 h treatment, caspase substrate Z-DEVD-R110, read-out: c* Concentration at which 50% of the maximum signal was achieved (caspase activation). As to the method:
Caspase3, 7 Activation. MOLM-13 cells (30,000 cells/well) were plated in black 96-well plates (Corning Cat. #3603) in 40 μL of RPMI media, and left in an incubator (37° C., 5% CO2) for up to 24 h. Cells were treated for 16 h with compounds or DMSO (control) at desired concentrations in 50 μL of media. Drugs were added in triplicate wells. Following exposure of cells to Hsp70 inhibitors, 50 μL of buffer containing 10 mM HEPES (pH 7.5), 2 mM EDTA, 0.1% CHAPS and the caspase substrate Z-DEVD-R110 at 25 μM was added to each well. Plates were incubated until the signal stabilized and then the fluorescence signal of each well was measured in an Analyst GT microplate reader. The percentage increase in apoptotic cells was calculated by comparison of the fluorescence reading obtained from treated versus control cells.
For the compound `CN1CCN(c2ncc(Sc3ccc(C(N)=O)cc3)c(OCc3cccc(N(C)C)c3)n2)CC1` [100a, 4-((4-((3-(Dimethylamino)benzyl)oxy)-2-(4-methylpiperazin-1-yl)pyrimidin-5-yl)thio)benzamide], the EC50 is below 200 nM. In the case of `CN1CCN(c2ncc(Sc3ccc(C(N)=O)cc3)c(OCc3cccc(N4CCCC4)c3)n2)CC1` [100b, 4-((2-(4-Methylpiperazin-1-yl)-4-((3-(pyrrolidin-1-yl)benzyl)oxy)pyrimidin-5-yl)thio)benzamide], the EC50 fell in the range of 200 to 400 nM. `CN1CCN(c2ncc(Sc3ccc(C(N)=O)cc3)c(OCc3ccc(F)c(N(C)C)c3)n2)CC1` [100c, 4-((4-((3-(Dimethylamino)-4-fluorobenzyl)oxy)-2-(4-methylpiperazin-1-yl)pyrimidin-5-yl)thio)benzamide]: the EC50 is below 200 nM. For `CC(Oc1nc(N2CCN(C)CC2)ncc1Sc1ccc(C(N)=O)cc1)c1cccc(N(C)C)c1` (stereo not drawn) [100d, 4-((4-(1-(3-(Dimethylamino)phenyl)ethoxy)-2-(4-methylpiperazin-1-yl)pyrimidin-5-yl)thio)benzamide] the value was at least 1200 nM; for `CN1CCN(c2ncc(Sc3ccc(C(N)=O)cc3)c(OCc3cccc(NC4CC4)c3)n2)CC1` [100e, 4-((4-((3-(Cyclopropylamino)benzyl)oxy)-2-(4-methylpiperazin-1-yl)pyrimidin-5-yl)thio)benzamide], below 200 nM; for `CN1CCN(c2ncc(Sc3ccc(C(N)=O)cc3)c(OCc3cccc(-n4cccn4)c3)n2)CC1` [100f, 4-((4-((3-(1H-Pyrazol-1-yl)benzyl)oxy)-2-(4-methylpiperazin-1-yl)pyrimidin-5-yl)thio)benzamide], 400 to 1000 nM. `COc1cccc(COc2nc(N3CCN(C)CC3)ncc2Sc2ccc(C(N)=O)cc2)c1` [100g, 4-((4-((3-Methoxybenzyl)oxy)-2-(4-methylpiperazin-1-yl)pyrimidin-5-yl)thio)benzamide]: the EC50 was below 200 nM. Regarding `CN1CCN(c2ncc(Sc3ccc(C(N)=O)cc3)c(OCCc3ccccc3)n2)CC1` [100h, 4-((2-(4-Methylpiperazin-1-yl)-4-phenethoxypyrimidin-5-yl)thio)benzamide], the EC50 lay within 200 to 400 nM. As for `CN1CCN(c2ncc(Sc3ccc(C(N)=O)cc3)c(OCc3ccco3)n2)CC1` [100i, 4-((4-(Furan-2-ylmethoxy)-2-(4-methylpiperazin-1-yl)pyrimidin-5-yl)thio)benzamide], the EC50 fell in the range of 400 to 1000 nM. `CN1CCN(c2ncc(Sc3ccc(C(N)=O)cc3)c(OCc3ccoc3)n2)CC1` [100j, 4-((4-(Furan-3-ylmethoxy)-2-(4-methylpiperazin-1-yl)pyrimidin-5-yl)thio)benzamide]: the EC50 was in the range of 200 to 400 nM. Turning to `CN1CCN(c2ncc(Sc3ccc(C(N)=O)cc3)c(OCc3ccc(F)cc3)n2)CC1` [100m, 4-((4-((4-Fluorobenzyl)oxy)-2-(4-methylpiperazin-1-yl)pyrimidin-5-yl)thio)benzamide], the EC50 was 200 to 400 nM. `C[C@H](Oc1nc(N2CCN(C)CC2)ncc1Sc1ccc(C(N)=O)cc1)c1ccc(F)cc1` [100n, (S)-4-((4-(1-(4-Fluorophenyl)ethoxy)-2-(4-methylpiperazin-1-yl)pyrimidin-5-yl)thio)benzamide]: the EC50 was at least 1200 nM. Regarding `C[C@@H](Oc1nc(N2CCN(C)CC2)ncc1Sc1ccc(C(N)=O)cc1)c1ccc(F)cc1` [100o, (R)-4-((4-(1-(4-Fluorophenyl)ethoxy)-2-(4-methylpiperazin-1-yl)pyrimidin-5-yl)thio)benzamide], the EC50 was at least 1200 nM. For `CC(=O)c1cccc(COc2nc(N3CCN(C)CC3)ncc2Sc2ccc(C(N)=O)cc2)c1` [100q, 4-((4-((3-Acetylbenzyl)oxy)-2-(4-methylpiperazin-1-yl)pyrimidin-5-yl)thio)benzamide] the value was 400 to 1000 nM. For `CN1CCN(c2ncc(Sc3ccc(C(N)=O)cc3)c(OCc3ccnc(N)c3)n2)CC1` [100r, 4-((4-((2-Aminopyridin-4-yl)methoxy)-2-(4-methylpiperazin-1-yl)pyrimidin-5-yl)thio)benzamide] the value was 1000 to 1200 nM; for `CN1CCN(c2ncc(Sc3ccc(C(N)=O)cc3)c(OCc3cccc(I)c3)n2)CC1` [100s, 4-((4-((3-Iodobenzyl)oxy)-2-(4-methylpiperazin-1-yl)pyrimidin-5-yl)thio)benzamide], 200 to 400 nM; for `[2H]c1c([2H])c([2H])c(COc2nc(N3CCN(C)CC3)ncc2Sc2ccc(C(N)=O)cc2)c([2H])c1[2H]` [100t, 4-((4-(Benzyloxy-d5)-2-(4-methylpiperazin-1-yl)pyrimidin-5-yl)thio)benzamide], 400 to 1000 nM. As for `[2H]C([2H])(Oc1nc(N2CCN(C)CC2)ncc1Sc1ccc(C(N)=O)cc1)c1ccccc1` [100u, 4-((4-(Benzyloxy-d2)-2-(4-methylpiperazin-1-yl)pyrimidin-5-yl)thio)benzamide], the EC50 is 400 to 1000 nM. Regarding `CN1CCN(c2ncc(Sc3ccc(C(N)=O)cc3)c(OCc3ccc(I)cc3)n2)CC1` [100v, 4-((4-((4-Iodobenzyl)oxy)-2-(4-methylpiperazin-1-yl)pyrimidin-5-yl)thio)benzamide], the EC50 is at least 1200 nM. For `CN1CCN(c2ncc(Sc3ccc(C(N)=O)cc3)c(OCc3cccc(C(N)=O)c3)n2)CC1` [100w, 3-(((5-((4-Carbamoylphenyl)thio)-2-(4-methylpiperazin-1-yl)pyrimidin-4-yl)oxy)methyl)benzamide], the EC50 fell in the range of 400 to 1000 nM. As to `CN1CCN(c2ncc(Sc3ccc(C(N)=O)cc3)c(OCc3cccc(N)c3)n2)CC1` [100x, 4-((4-((3-Aminobenzyl)oxy)-2-(4-methylpiperazin-1-yl)pyrimidin-5-yl)thio)benzamide], the EC50 was below 200 nM. As for `CN1CCN(c2ncc(Sc3ccc(N)nc3)c(OCc3ccc(F)cc3)n2)CC1` [146c, 5-((4-((4-Fluorobenzyl)oxy)-2-(4-methylpiperazin-1-yl)pyrimidin-5-yl)thio)pyridin-2-amine], the EC50 was in the range of 200 to 400 nM. On to `CN1CCN(c2ncc(Sc3ccc(N)nc3)c(OCc3cccc(C(F)(F)F)c3)n2)CC1` [146e, 5-((2-(4-Methylpiperazin-1-yl)-4-((3-(trifluoromethyl)benzyl)oxy)pyrimidin-5-yl)thio)pyridin-2-amine], for which the EC50 was in the range of 400 to 1000 nM. Turning to `NC(=O)c1ccc(Sc2cnc(N3CCOCC3)nc2OCc2ccccc2)cc1` [179a], the EC50 was at least 1200 nM.

Take `CN(C)[C@H]1CCN(c2ncc(Sc3ccc(C(N)=O)cc3)c(OCc3ccccc3)n2)C1` [179c, (S)-4-((4-(Benzyloxy)-2-(3-(dimethylamino)pyrrolidin-1-yl)pyrimidin-5-yl)thio)benzamide]: the EC50 was at least 1200 nM. Turning to `CN(C)c1cccc(COc2nc(N3CCOCC3)ncc2Sc2ccc(C(N)=O)cc2)c1` [185a, 4-((4-((3-(Dimethylamino)benzyl)oxy)-2-morpholinopyrimidin-5-yl)thio)benzamide], the EC50 fell in the range of 1000 to 1200 nM.

On to `CC(C)N1CCN(c2ncc(Sc3ccc(C(N)=O)cc3)c(OCc3cccc(N(C)C)c3)n2)CC1` [185b, 4-((4-((3-(Dimethylamino)benzyl)oxy)-2-(4-isopropylpiperazin-1-yl)pyrimidin-5-yl)thio)benzamide], for which the EC50 lay in the range of 1000 to 1200 nM. In the case of `CN(C)c1cccc(COc2nc(N3CCN(CCO)CC3)ncc2Sc2ccc(C(N)=O)cc2)c1` [185d, 4-((4-((3-(Dimethylamino)benzyl)oxy)-2-(4-(2-hydroxyethyl)piperazin-1-yl)pyrimidin-5-yl)thio)benzamide], the EC50 lay in the range of 400 to 1000 nM.

Turning to `C#CCCCCN1CCN(c2ncc(Sc3ccc(C(N)=O)cc3)c(OCc3cccc(N(C)C)c3)n2)CC1` [185e, 4-((4-((3-(Dimethylamino)benzyl)oxy)-2-(4-(hex-5-yn-1-yl)piperazin-1-yl)pyrimidin-5-yl)thio)benzamide], the EC50 is below 200 nM. `COc1cccc(COc2nc(N3CCOCC3)ncc2Sc2ccc(C(N)=O)cc2)c1` [190a, 4-((4-((3-Methoxybenzyl)oxy)-2-morpholinopyrimidin-5-yl)thio)benzamide]: the EC50 is 200 to 400 nM. On to `COc1cccc(COc2nc(N3CCN(C(C)C)CC3)ncc2Sc2ccc(C(N)=O)cc2)c1` [190b, 4-((2-(4-Isopropylpiperazin-1-yl)-4-((3-methoxybenzyl)oxy)pyrimidin-5-yl)thio)benzamide], for which the EC50 lay in the range of 200 to 400 nM. The value for `COc1cccc(COc2nc(N3CC[C@@H](N(C)C)C3)ncc2Sc2ccc(C(N)=O)cc2)c1` [190e, (R)-4-((2-(3-(dimethylamino)pyrrolidin-1-yl)-4-((3-methoxybenzyl)oxy)pyrimidin-5-yl)thio)benzamide] was below 200 nM; that for `COc1cccc(COc2nc(N(C)CCN(C)C)ncc2Sc2ccc(C(N)=O)cc2)c1` [190g, 4-((2-((2-(Dimethylamino)ethyl)(methyl)amino)-4-((3-methoxybenzyl)oxy)pyrimidin-5-yl)thio)benzamide] was at least 1200 nM; that for `COc1cccc(COc2nc(N3CCCN(C)CC3)ncc2Sc2ccc(C(N)=O)cc2)c1` [190h] was at least 1200 nM. The value for `C#CCCCCN1CCN(c2ncc(Sc3ccc(C(N)=O)cc3)c(OCc3cccc(OC)c3)n2)CC1` [190j, 4-((2-(4-(Hex-5-yn-1-yl)piperazin-1-yl)-4-((3-methoxybenzyl)oxy)pyrimidin-5-yl)thio)benzamide] was below 200 nM. In the case of `C#CCCCN1CCN(c2ncc(Sc3ccc(C(N)=O)cc3)c(OCc3cccc(OC)c3)n2)CC1` [190k, 4-((4-((3-Methoxybenzyl)oxy)-2-(4-(pent-4-yn-1-yl)piperazin-1-yl)pyrimidin-5-yl)thio)benzamide], the EC50 is below 200 nM.
